Here are results for 35 compounds from patent US20260166039A1 (SCHRÖDINGER, INC., priority 2022, published 2026).

One test deals with T1, Wee1 kinase domain (Homo sapiens, UniProt P30291).
T1 construct: Wee1 kinase domain was purchased from Carna (catalog #05-177); purchased Carna 05-177
T1 sequence (P30291 299-569 limits assumed): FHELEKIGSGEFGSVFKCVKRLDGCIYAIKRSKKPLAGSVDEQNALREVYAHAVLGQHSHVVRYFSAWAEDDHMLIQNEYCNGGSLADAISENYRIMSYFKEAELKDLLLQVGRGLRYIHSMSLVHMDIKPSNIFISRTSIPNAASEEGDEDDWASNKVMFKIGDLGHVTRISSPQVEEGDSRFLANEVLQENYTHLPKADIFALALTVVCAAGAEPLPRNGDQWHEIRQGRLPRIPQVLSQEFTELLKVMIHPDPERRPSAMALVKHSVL
The test is described as follows: Wee1 Kinase Biochemical Assay (ADP-Glo). Conditions: 1 nM Wee1 enzyme, 15 uM ATP, 4 hours at 25° C. On the procedure: Wee1 Kinase Biochemical Assay Protocol
Wee1 kinase domain was purchased from Carna (catalog #05-177). Wee1 kinase activity was determined with Poly(Lys,Tyr 4:1) hydrobromide as a substrate (Sigma-Aldrich) and by measuring ADP production using the ADP-Glo Kinase Assay kit (Promega) following the manufacturer's instructions. The kinase reaction was performed using the following conditions:
Buffer: 40 mM Tris-HCl, 20 mM magnesium chloride, supplemented with 0.1 mg/mL bovine serum albumin and 2 mM DTT. The final reaction mix contained 1 nM Wee1 enzyme, 15 uM ATP, and 2 ng/mL Poly(Lys,Tyr 4:1) hydrobromide substrate. The reaction time was 4 hours at 25° C.
The ADP-Glo signal was measured using the Envision plate reader and the percentage inhibition of kinase activity calculated for each inhibitor tested. Percent inhibition of Wee1 kinase activity was calculated based on the following formula.
[formula] • SSample: the signal of compounds • SHigh Ctrl: the signal of high control (DMSO) • SLow Ctrl: the signal of low control (positive control Wee1 inhibitor at saturating concentration)
As a reminder, the IC50 is the point on the concentration scale where inhibition reaches its midpoint. For `CN1CCN(c2ccc(Nc3ncc4c(n3)N(c3ccc(=O)n(C)n3)[C@@H]3CC(C)(C)OC[C@]43C)cc2)CC1` (single isomer, unassigned) [Example 826], the IC50 was less than 10 nM.

Staying with this test, now noted: Wee1 kinase domain, 15 uM ATP, ADP-Glo.
Compound `Cc1cc(Nc2ncc3c(n2)N(c2cccc(C(C)(C)O)n2)[C@H]2CC(C)(C)OC[C@@]32C)ccc1C1CCN(C)CC1` (single isomer, unassigned) [Example 7] returned an IC50 of 10 to 100 nM.
`CN1CCC(c2ccc(Nc3ncc4c(n3)N(c3cccc(N=S(C)(C)=O)n3)[C@H]3CC(C)(C)OC[C@@]43C)cc2F)CC1` (single isomer, unassigned) [Example 178] gave an IC50 of 100 to 1000 nM.
With `Cc1cc(Nc2ncc3c(n2)N(c2cccc(N4C(=O)OC[C@@H]4C)n2)[C@H]2CC(C)(C)OC[C@@]32C)ccc1O[C@H]1CCNC1` (single isomer, unassigned) [Example 338], the IC50 is 10 to 100 nM.
In the case of `CNCc1cccc(N2c3nc(Nc4ccc([C@@H]5CCCO5)cc4)ncc3[C@@]3(C)COC(C)(C)C[C@@H]23)n1` (single isomer, unassigned) [Example 59], the IC50 is less than 10 nM.
In turn, `C[C@H]1COC(=O)N1c1cccc(N2c3nc(Nc4ccn(C5CCN(C)CC5)c(=O)c4)ncc3[C@]3(C)COC(C)(C)C[C@H]23)n1` (single isomer, unassigned) [Example 272] registered an IC50 of 10 to 100 nM.
Turning to `CNCc1cccc(N2c3nc(Nc4ccc(C(=O)N5CCOCC5)cc4)ncc3[C@]3(C)COC(C)(C)C[C@H]23)n1` (single isomer, unassigned) [Example 23], the IC50 was in the range of 100 to 1000 nM.
For the compound `CN1CC(c2ccc(Nc3ncc4c(n3)N(c3cccc(N=S(C)(C)=O)n3)[C@H]3CC(C)(C)OC[C@@]43C)cc2Cl)C1` (single isomer, unassigned) [Example 182], the IC50 is 100 to 1000 nM.
The compound `C[C@H]1COC(=O)N1c1cccc(N2c3nc(Nc4ccn(C)c(=O)c4)ncc3[C@]3(C)COC(C)(C)C[C@H]23)n1` (single isomer, unassigned) [Example 340] yielded an IC50 of 100 to 1000 nM.
`CNCc1cccc(N2c3nc(Nc4ccc(N5CCCCC5)cc4)ncc3[C@]3(C)COC(C)(C)C[C@H]23)n1` (single isomer, unassigned) [Example 1] came in with a 50% inhibitory concentration (IC50) of 10 to 100 nM.
In turn, `CNCc1cccc(N2c3nc(Nc4ccc(N5CCOCC5)c(Cl)c4)ncc3[C@]3(C)COC(C)(C)C[C@H]23)n1` (single isomer, unassigned) [Example 13] registered an IC50 of 10 to 100 nM.
The compound `C[C@H]1COC(=O)N1c1cccc(N2c3nc(Nc4ccc(O[C@H]5CCN(C)C5)cc4)ncc3[C@]3(C)COC(C)(C)C[C@H]23)n1` (single isomer, unassigned) [Example 332] gave an IC50 of 10 to 100 nM.
Compound `CNCc1cccc(N2c3nc(Nc4ccccc4)ncc3[C@]3(C)COC(C)(C)C[C@H]23)n1` (single isomer, unassigned) [Example 46] showed an IC50 of 10 to 100 nM.
Take `C[C@H]1COC(=O)N1c1cccc(N2c3nc(Nc4ccc([C@@H]5CCN(C)C5)cc4)ncc3[C@]3(C)COC(C)(C)C[C@H]23)n1` (single isomer, unassigned) [Example 304]: the IC50 lay within 10 to 100 nM.
The compound `CN=S1(=O)CCN(c2ccc(Nc3ncc4c(n3)N(c3cccc(CNC)n3)[C@H]3CC(C)(C)OC[C@@]43C)cc2)CC1` (single isomer, unassigned) [Example 66] had an IC50 of 100 to 1000 nM.
On the same count and under the same terms, the value for `CNCc1cccc(N2c3nc(Nc4ccc([C@H]5CCCO5)cc4)ncc3[C@@]3(C)COC(C)(C)C[C@@H]23)n1` (single isomer, unassigned) [Example 60] was less than 10 nM; that for `CNCc1cccc(N2c3nc(Nc4ccc([C@H]5CNC(=O)C5)cc4)ncc3[C@]3(C)COC(C)(C)C[C@H]23)n1` (single isomer, unassigned) [Example 62] was 10 to 100 nM.
Take `CC1(C)C[C@@H]2N(c3cccc(N=S(C)(C)=O)n3)c3nc(Nc4ccc([C@@H]5CCCN5)nc4)ncc3[C@]2(C)CO1` (single isomer, unassigned) [Example 213]: the IC50 lay in the range of 10 to 100 nM.
The compound `C[C@H]1COC(=O)N1c1cccc(N2c3nc(Nc4ccc(C5CN(C)C5)cc4)ncc3[C@]3(C)COC(C)(C)C[C@H]23)n1` (single isomer, unassigned) [Example 309] came in with an IC50 of 10 to 100 nM.
Same read-out and setting: the value for `Cc1cc(Nc2ncc3c(n2)N(c2cccc(N4C(=O)OC[C@@H]4C)n2)[C@H]2CC(C)(C)OC[C@@]32C)ccc1N1CCN(C)CC1` (single isomer, unassigned) [Example 236] was 10 to 100 nM.

The test is the same for the next values; noted with them: class symbols; 1 nM Wee1 enzyme, 15 uM ATP, 4 hours at 25° C.
The compound `CC1(C)C[C@H]2N(c3cccc(N=S(C)(C)=O)n3)c3nc(NC(=O)c4ccccc4)ncc3[C@@]2(C)CO1` (single isomer, unassigned) [Example 404] registered an IC50 of 10 to 100 nM.
Regarding `CC1(C)C[C@@H]2N(c3cccc(N4CCOC4=O)n3)c3nc(Nc4ccc([C@H]5CCNC5)cc4)ncc3[C@]2(C)CO1` [Example 609, 3-(6-((4bS,8aS)-4b,7,7-trimethyl-2-((4-((R)-pyrrolidin-3-yl)phenyl)amino)-4b,7,8,8a-tetrahydropyrano[3′,4′:4,5]pyrrolo[2,3-d]pyrimidin-9(5H)-yl)pyridin-2-yl)oxazolidin-2-one], the IC50 lay in the range of 10 to 100 nM.
`CN1CCN(c2ccc(Nc3ncc4c(n3)N(c3cccc(N=S(C)(C)=O)n3)[C@@H]3CC(C)(C)OC[C@]43C)nc2)CC1` (single isomer, unassigned) [Example 510] had an IC50 of less than 10 nM.
Turning to `CN(C)Cc1cccc(N2c3nc(Nc4ccc(N5CCOCC5)cc4)ncc3[C@]3(C)COC(C)(C)C[C@H]23)n1` (single isomer, unassigned) [Example 524], the IC50 lay within 100 to 1000 nM.
The compound `CN1CC2(C1)CN(c1ccc(Nc3ncc4c(n3)N(c3cccc(N5C(=O)CCC5(C)C)n3)[C@@H]3CC(C)(C)OC[C@]43C)cc1)C2` (single isomer, unassigned) [Example 786] had an IC50 of less than 10 nM.
`CN1C[C@H]2C[C@@H]1CN2c1ccc(Nc2ncc3c(n2)N(c2cccc(C(C)(C)O)n2)[C@H]2CC(C)(C)OC[C@@]32C)cc1` (single isomer, unassigned) [Example 414]: the IC50 was 100 to 1000 nM.
Compound `CC1(C)C[C@H]2N(c3cccc(N=S(C)(C)=O)n3)c3nc(Nc4ccn(C5CCC5)c(=O)c4)ncc3[C@@]2(C)CO1` (single isomer, unassigned) [Example 802] yielded an IC50 of less than 10 nM.
In the case of `CC1(C)C[C@H]2N(c3ccccn3)c3nc(Nc4ccc(N5CCN6CC[C@H]5C6)cc4)ncc3[C@@]2(C)CO1` [Example 809, (4bR,8aR)-N-(4-((5S)-1,4-diazabicyclo[3.2.1]octan-4-yl)phenyl)-4b,7,7-trimethyl-9-(pyridin-2-yl)-4b,5,7,8,8a,9-hexahydropyrano[3′,4′:4,5]pyrrolo[2,3-d]pyrimidin-2-amine], the IC50 was less than 10 nM.
Still for that read-out and setting: under `CC[C@@]1(O)CCc2ccc(N3c4nc(Nc5ccc(N6CCN(C)CC6)cc5)ncc4[C@@]4(C)COC(C)(C)C[C@@H]34)nc21` [Example 787, (R)-7-ethyl-2-((4bR,8aR)-4b,7,7-trimethyl-2-((4-(4-methylpiperazin-1-yl)phenyl)amino)-4b,7,8,8a-tetrahydropyrano[3′,4′:4,5]pyrrolo[2,3-d]pyrimidin-9(5H)-yl)-6,7-dihydro-5H-cyclopenta[b]pyridin-7-ol] stands less than 10 nM; under `CN1C[C@@H]2C[C@H]1CN2c1ccc(Nc2ncc3c(n2)N(c2cccc(N4C(=O)CCC4(C)C)n2)[C@@H]2CC(C)(C)OC[C@]32C)cc1` [Example 798, 5,5-dimethyl-1-(6-((4bR,8aR)-4b,7,7-trimethyl-2-((4-((1S,4S)-5-methyl-2,5-diazabicyclo[2.2.1]heptan-2-yl)phenyl)amino)-4b,7,8,8a-tetrahydropyrano[3′,4′:4,5]pyrrolo[2,3-d]pyrimidin-9(5H)-yl)pyridin-2-yl)pyrrolidin-2-one], less than 10 nM.
Compound `CC[C@@]1(O)CCc2ccc(N3c4nc(Nc5ccc(N6C[C@@H]7C[C@H]6CN7C)cc5)ncc4[C@@]4(C)COC(C)(C)C[C@@H]34)nc21` [Example 792, (R)-7-ethyl-2-((4bR,8aR)-4b,7,7-trimethyl-2-((4-((1S,4S)-5-methyl-2,5-diazabicyclo[2.2.1]heptan-2-yl)phenyl)amino)-4b,7,8,8a-tetrahydropyrano[3′,4′:4,5]pyrrolo[2,3-d]pyrimidin-9(5H)-yl)-6,7-dihydro-5H-cyclopenta[b]pyridin-7-ol] returned an IC50 of less than 10 nM.
As to `CN1CC2(C1)CN(c1ccc(Nc3ncc4c(n3)N(c3cccc(N5CCOC5=O)n3)[C@H]3CC(C)(C)OC[C@@]43C)cc1)C2` [Example 708, 3-(6-((4bS,8aS)-4b,7,7-trimethyl-2-((4-(6-methyl-2,6-diazaspiro[3.3]heptan-2-yl)phenyl)amino)-4b,7,8,8a-tetrahydropyrano[3′,4′:4,5]pyrrolo[2,3-d]pyrimidin-9(5H)-yl)pyridin-2-yl)oxazolidin-2-one], the IC50 is 10 to 100 nM.
The compound `CNCc1cccc(N2c3nc(Nc4cnnc(C)c4)ncc3[C@]3(C)COC(C)(C)C[C@H]23)n1` (single isomer, unassigned) [Example 477] came in with an IC50 of 100 to 1000 nM.
Regarding `CN1C[C@H]2C[C@@H]1CN2c1ccc(Nc2ncc3c(n2)N(c2cccc(C(C)(C)O)n2)[C@H]2CC(C)(C)OC[C@@]32C)cc1F` (single isomer, unassigned) [Example 428], the IC50 was 100 to 1000 nM.
Still for that read-out and setting: under `CN1CCN(c2ccc(Nc3ncc4c(n3)N(c3cccc(N5CCOC5=O)n3)[C@H]3CC(C)(C)OC[C@@]43C)cc2)CC1` (single isomer, unassigned) [Example 576] stands 100 to 1000 nM.
